Structures can show the parent of a compound that is named as a salt.
Molecular target: T1, human chemokine receptor 2 isoform B (Homo sapiens, UniProt P41597)
T1 construct: host or cells: CHOK1-CCR2B-A5 (CHO-K1)
T1 sequence (P41597 1-360 isoform P41597-2): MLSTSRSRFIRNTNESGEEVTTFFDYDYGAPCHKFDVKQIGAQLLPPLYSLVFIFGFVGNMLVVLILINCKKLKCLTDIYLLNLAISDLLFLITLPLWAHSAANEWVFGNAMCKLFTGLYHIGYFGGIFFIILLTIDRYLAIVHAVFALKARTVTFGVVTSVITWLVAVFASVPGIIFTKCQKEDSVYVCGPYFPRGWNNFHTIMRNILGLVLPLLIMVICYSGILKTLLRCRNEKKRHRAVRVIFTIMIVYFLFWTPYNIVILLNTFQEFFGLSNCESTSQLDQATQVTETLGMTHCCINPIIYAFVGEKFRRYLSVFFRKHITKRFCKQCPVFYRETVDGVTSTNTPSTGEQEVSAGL
Test: Calcium mobilization assay (FLIPR, CHOK1-CCR2B-A5 cells, 20 nM MCP-1)
Assay type: cell-based
Conditions: Ca mobilisation assay, CCR2, antagonist activity vs 20 nM MCP-1
Procedure: CHOK1-CCR2B-A5 cells (from Euroscreen) stably overexpressing the human chemokine receptor 2 isoform B were cultured in Nutrient Hams F12 medium supplemented with 5% FBS, 100 U/ml penicillin, 100 μg/ml streptomycin, 400 μg/ml G418 and 5 μg/ml puromycin.
For the assay cells were grown overnight in 384-well black clear flat bottom polystyrene plates (Costar) at 37° C. at 5% CO2. After washing with DMEM, 20 mM Hepes, 2.5 mM probenecid, 0.1% BSA (DMEM assay buffer) cells were loaded with 4 μM Fluo-4 in the same DMEM assay buffer for 2 hours at 30° C. Excess dye was removed and cells were washed with DMEM assay buffer. 384-well compound plates were prepared with DMEM assay buffer/0.5% DMSO with or without various concentrations of test compounds. Usually compounds were tested for agonist and antagonist activity.
Test compounds were added to the assay plate and agonist activity was monitored as fluorescence for 80 seconds with a FLIPR (488 nm excitation; 510-570 nm emission; Molecular Devices). After 20-30 min. of incubation at 30° C., 20 nM MCP-1 (R&D; Roche) was added and fluorescence was monitored again for 80 seconds. Increases in intracellular calcium are reported as maximum fluorescence after agonist exposure minus basal fluorescence before exposure. Antagonist activity is indicated as inhibitor concentration required for 50% inhibition of specific calcium increases.

IC50 [nM]	SMILES
1360	O=C(/C=C/c1ccc(F)c(Cl)c1)N1CCC(=O)N(C[C@@H](O)CN2CC[C@@H](CO)[C@H](O)C2)CC1 (mixture of isomers) [Example 339, 1-[(E)-3-(3-Chloro-4-fluoro-phenyl)-acryloyl]-4-[(S)-2-hydroxy-3-(trans-3-hydroxy-4-hydroxymethyl-piperidin-1-yl)-propyl]-[1,4]diazepan-5-one]
26	C[C@@H]1C[C@H](O)CN(C[C@H](O)CN2CCN(C(=O)/C=C/c3ccc(F)c(Cl)c3)CCC2=O)C1 (mixture of isomers) [Example 344, 1-[(E)-3-(3-Chloro-4-fluoro-phenyl)-acryloyl]-4-[(S)-2-hydroxy-3-(cis-3-hydroxy-5-methyl-piperidin-1-yl)-propyl]-[1,4]diazepan-5-one]
86	O=C(C=Cc1ccc(Cl)c(Cl)c1)N1CCC(=O)N(CCCCN2CCC(F)C(O)C2)CC1 (mixture of isomers) [Example 429, (rac,trans)-1-[(E)-3-(3,4-Dichloro-phenyl)-acryloyl]-4-[4-(4-fluoro-3-hydroxy-piperidin-1-yl)-butyl]-[1,4]diazepan-5-one]
566	O=C(/C=C/c1ccc(Cl)c(Cl)c1)N1CCC(=O)N(CCCN2CCC(O)C2)CC1 (racemic) [Example 71, (+/−)-1-[(E)-3-(3,4-Dichloro-phenyl)-acryloyl]-4-[3-(3-hydroxy-pyrrolidin-1-yl)-propyl]-[1,4]diazepan-5-one]
212	O=C(/C=C/c1ccc(Cl)c(Cl)c1)N1CCC(=O)N(CC(O)CN2CCCCC2)CC1 (racemic) [Example 166, (rac)-1-[(E)-3-(3,4-Dichloro-phenyl)-acryloyl]-4-(2-hydroxy-3-piperidin-1-yl-propyl)-[1,4]diazepan-5-one]
255	O=C(/C=C/c1ccc(Cl)c(Cl)c1)N1CCC(=O)N(CC(O)CN2CCC(F)CC2)CC1 (racemic) [Example 169, (rac)-1-[(E)-3-(3,4-Dichloro-phenyl)-acryloyl]-4-[3-(4-fluoro-piperidin-1-yl)-2-hydroxy-propyl]-[1,4]diazepan-5-one]
448	O=C(/C=C/c1ccc(Cl)c(Cl)c1)N1CCC(=O)N(CCC(O)CN2CCCCC2)CC1 (racemic) [Example 170, (rac)-1-[(E)-3-(3,4-Dichloro-phenyl)-acryloyl]-4-(3-hydroxy-4-piperidin-1-yl-butyl)-[1,4]diazepan-5-one]
995	O=C(/C=C/c1ccc(Cl)c(Cl)c1)N1CCC(=O)N(CCC(O)CN2CCCC(O)C2)CC1 (racemic) [Example 171, (rac)-1-[(E)-3-(3,4-Dichloro-phenyl)-acryloyl]-4-[3-hydroxy-4-(3-hydroxy-piperidin-1-yl)-butyl]-[1,4]diazepan-5-one]

The next lines start with the compound.

SMILES	IC50 [nM]
CC1CC(O)CN(CCCCN2CCN(C(=O)C=Cc3ccc(Cl)c(F)c3)CCC2=O)C1 (mixture of isomers) [Example 421, (rac,cis)-1-[(E)-3-(4-Chloro-3-fluoro-phenyl)-acryloyl]-4-[4-(3-hydroxy-5-methyl-piperidin-1-yl)-butyl]-[1,4]diazepan-5-one]	64
CC1C(O)CCCN1CCCCN1CCN(C(=O)C=Cc2ccc(Cl)c(Cl)c2)CCC1=O (mixture of isomers) [Example 428, (rac,trans)-1-[(E)3-(3,4-Dichloro-phenyl)-acryloyl]-4-[4-(3-hydroxy-2-methyl-piperidin-1-yl)-butyl]-[1,4]diazepan-5-one]	113
O=C(C=Cc1ccc(Cl)c(Cl)c1)N1CCC(=O)N(CCCCN2CCC(O)C(F)C2)CC1 (mixture of isomers) [Example 434, (rac,trans)-1-[(E)-3-(3,4-Dichloro-phenyl)-acryloyl]-4-[4-(3-fluoro-4-hydroxy-piperidin-1-yl)-butyl]-[1,4]diazepan-5-one]	140
CC1CC(O)CN(CCCCN2CCN(C(=O)C=Cc3ccc(Cl)c(Cl)c3)CCC2=O)C1 (mixture of isomers) [Example 482, (rac,cis)-1-[(E)-3-(3,4-Dichloro-phenyl)-acryloyl]-4-[4-(3-hydroxy-5-methyl-piperidin-1-yl)-butyl]-[1,4]diazepan-5-one]	13
O=C(/C=C/c1ccc(Cl)c(Cl)c1)N1CCC(=O)N(CCCNC2CC3CCC2C3)CC1 (racemic) [Example 38, (+/−)-4-[3-(Bicyclo[2.2.1]hept-2-ylamino)-propyl]-1-[(E)-3-(3,4-dichloro-phenyl)-acryloyl]-[1,4] diazepan-5-one]	121
CC(=O)NC1CCN(CCCN2CCN(C(=O)/C=C/c3ccc(Cl)c(Cl)c3)CCC2=O)C1 (racemic) [Example 44, (+/−)-N-[1-(E)-(3-{4-[3-(3,4-Dichloro-phenyl)-acryloyl]-7-oxo-[1,4]diazepan-1-yl}-propyl)-pyrrolidin-3-yl]-acetamide]	646
CC1CCCCN1CCCN1CCN(C(=O)/C=C/c2ccc(Cl)c(Cl)c2)CCC1=O (racemic) [Example 62, (+/−)-1-[(E)-3-(3,4-Dichloro-phenyl)-acryloyl]-4-[3-(2-methyl-piperidin-1-yl)-propyl]-[1,4]diazepan-5-one]	165
COC1CCCN(CCCN2CCN(C(=O)/C=C/c3ccc(Cl)c(Cl)c3)CCC2=O)C1 (racemic) [Example 80, (+/−)-1-[(E)-3-(3,4-Dichloro-phenyl)-acryloyl]-4-[3-(3-methoxy-piperidin-1-yl)-propyl]-[1,4]diazepan-5-one]	263
CC1CCCCN1CCN1CCN(C(=O)C=Cc2ccc(Cl)c(Cl)c2)CCC1=O (racemic) [Example 102, (+/−)-1-[(E)-3-(3,4-Dichloro-phenyl)-acryloyl]-4-[3-(2-methyl-piperidin-1-yl)-ethyl]-[1,4]diazepan-5-one]	1020
O=C(C=Cc1ccc(Cl)c(Cl)c1)N1CCC(=O)N(CCNC2CC3CCC2C3)CC1 (racemic) [Example 110, (+/−)-4-[3-(Bicyclo[2.2.1]hept-2-ylamino)ethyl]-1-[(E)-3-(3,4-dichloro-phenyl)-acryloyl]-[1,4]diazepan-5-one]	641
O=C(/C=C/c1ccc(Cl)c(Cl)c1)N1CCC(=O)N(CCCCN2CCCC(O)C2)CC1 (racemic) [Example 161, 1-[(E)-3-(3,4-Dichloro-phenyl)-acryloyl]-4-[4-(3-hydroxy-piperidin-1-yl)-butyl]-[1,4]diazepan-5-one]	47
O=C(/C=C/c1ccc(Cl)c(Cl)c1)N1CCC(=O)N(CCCCN2CC[C@H](O)[C@H](O)C2)CC1 (racemic) [Example 163, 1-[(E)-3-(3,4-Dichloro-phenyl)-acryloyl]-4-[4-((3RS,4SR)-3,4-dihydroxy-piperidin-1-yl)-butyl]-[1,4]diazepan-5-one hydrochlorid]	560
O=C(/C=C/c1ccc(Cl)c(Cl)c1)N1CCC(=O)N(CCCCN2CC[C@@H](O)[C@H](O)C2)CC1 (racemic) [Example 164, 1-[(E)-3-(3,4-Dichloro-phenyl)-acryloyl]-4-[4-((3RS,4RS)-3,4-dihydroxy-piperidin-1-yl)-butyl]-[1,4]diazepan-5-one hydrochloride]	544
O=C(/C=C/c1ccc(Cl)c(Cl)c1)N1CCC(=O)N(CCCCN2CC[C@@H](O)[C@H](O)C2)CC1 (racemic) [Example 165, 1-[(E)-3-(3,4-Dichloro-phenyl)-acryloyl]-4-[4-((3RS,4RS)-3,4-dihydroxy-piperidin-1-yl)-butyl]-[1,4]diazepan-5-one]	345
